The source of these data is US20010042341A1, “Vase-added compositions for controlling plant and flower moisture transpiration rates” (priority 2000, published 2001).

The assay has as its system microorganisms. The following applies: display water (vase water) of cut flowers; prior art antimicrobial.

Take `O=C(O)CC(O)(CC(=O)O)C(=O)O.Oc1cccc2cccnc12` [8-hydroxy quinoline citrate]: the growth of microorganisms entry is “enhance the growth of microorganisms after an initial diminution of their level”.
